Measurements reported in patent US20150105252A1, “SUBSTITUTED PYRAZOLES AS HERBICIDES” (E I DU PONT DE NEMOURS AND COMPANY, priority 2013, published 2015).

Columns and labels:
oilseed rape [1] = assay: Test D preemergence; type: in vivo, Brassica napus; conditions: for Plant response rating, Oilseed Rape: Preemergence, scale 0 to 100
From the text: (§1) Seeds of plant species selected from bluegrass (annual bluegrass, Poa annua), blackgrass (Alopecurus myosuroides), canarygrass (littleseed canarygrass, Phalaris minor), chickweed (common chickweed, Stellaria media), galium (catchweed bedstraw, Galium aparine), bromegrass, downy (downy bromegrass, Bromus tectorum), field poppy (Papaver rhoeas), field violet (Viola arvensis), foxtail, green (green foxtail, Setaria viridis), deadnettle (henbit deadnettle, Lamium amplexicaule), ryegrass, Italian (Italian ryegrass, Lolium multiflorum), kochia (Kochia scoparia), lambsquarters (Chenopodium album), oilseed rape (Brassica napus), pigweed (redroot pigweed, Amaranthus retroflexus), chamomile (scentless chamomile, Matricaria inodora), speedwell (bird's-eye speedwell, Veronica persica), barley, spring (spring barley, Hordeum vulgare), wheat, spring (spring wheat, Triticum aestivum), buckwheat, wild (wild buckwheat, Polygonum convolvulus), mustard, wild (wild mustard, Sinapis arvensis), oat, wild (wild oat, Avena fatua), radish, wild (wild radish, Raphanus raphanistrum), windgrass (Apera spica-venti), Russian thistle (Salsola kali), barley, winter (winter barley, Hordeum vulgare), and wheat, winter (winter wheat, Triticum aestivum) were planted into a silt loam soil and treated preemergence with test chemicals formulated in a non-phytotoxic solvent mixture which included a surfactant.
(§2) At the same time, these species were planted in pots containing Redi-Earth® planting medium (Scotts Company, 14111 Scottslawn Road, Marysville, Ohio 43041) comprising spaghnum peat moss, vermiculite, wetting agent and starter nutrients and treated with postemergence applications of the test chemicals formulated in the same manner. Plants ranged in height from 2 to 18 cm (1- to 4-leaf stage). Treated plants and controls were maintained in a controlled growth environment for 14 to 21 days after which time all species were compared to controls and visually evaluated. Plant response ratings, summarized in Table D, are based on a scale of 0 to 100 where 0 is no effect and 100 is complete control. A dash (-) response means no test result.

field poppy [2] = assay: Test D postemergence; type: in vivo, Papaver rhoeas; conditions: scale 0 to 100
From the text: as §1, §2

windgrass = assay: Test D postemergence; type: in vivo, Apera spica-venti; conditions: scale 0 to 100
From the text: as §1, §2

mustard, wild = assay: Test D preemergence; type: in vivo, Sinapis arvensis; conditions: Preemergence, scale 0 to 100
From the text: as §1, §2

field poppy [3] = assay: Test D preemergence; type: in vivo, Papaver rhoeas; conditions: for Plant response rating, Field Poppy: Preemergence, scale 0 to 100
From the text: as §1, §2

blackgrass [4] = assay: Test D postemergence; type: in vivo, Alopecurus myosuroides; conditions: scale 0 to 100
From the text: as §1, §2

bluegrass [5] = assay: Test D preemergence; type: in vivo, Poa annua; conditions: for Plant response rating, Bluegrass: Preemergence, scale 0 to 100
From the text: as §1, §2

blackgrass [6] = assay: Test D preemergence; type: in vivo, Alopecurus myosuroides; conditions: for Plant response rating, Blackgrass: Preemergence, scale 0 to 100
From the text: as §1, §2

foxtail, green = assay: Test D postemergence; type: in vivo, Setaria viridis; conditions: scale 0 to 100
From the text: as §1, §2

galium [7] = assay: Test D preemergence; type: in vivo, Galium aparine; conditions: for Plant response rating, Galium: Preemergence, scale 0 to 100
From the text: as §1, §2

galium [8] = assay: Test D postemergence; type: in vivo, Galium aparine; conditions: scale 0 to 100
From the text: as §1, §2

bluegrass [9] = assay: Test D postemergence; type: in vivo, Poa annua; conditions: scale 0 to 100
From the text: as §1, §2

ryegrass, Italian = assay: Test D preemergence; type: in vivo, Lolium multiflorum; conditions: for Plant response rating, Ryegrass, Italian: Preemergence, scale 0 to 100
From the text: as §1, §2

chickweed = assay: Test D postemergence; type: in vivo, Stellaria media; conditions: scale 0 to 100
From the text: as §1, §2

bromegrass, downy = assay: Test D postemergence; type: in vivo, Bromus tectorum; conditions: scale 0 to 100
From the text: as §1, §2

oat, wild = assay: Test D preemergence; type: in vivo, Avena fatua; conditions: for Plant response rating, Oat, Wild: Preemergence, scale 0 to 100
From the text: as §1, §2

wheat, spring = assay: Test D postemergence; type: in vivo, Triticum aestivum; conditions: scale 0 to 100
From the text: as §1, §2

wheat, winter = assay: Test D postemergence; type: in vivo, Triticum aestivum; conditions: scale 0 to 100
From the text: as §1, §2

oilseed rape [10] = assay: Test D postemergence; type: in vivo, Brassica napus; conditions: scale 0 to 100
From the text: as §1, §2

[11] = 16 g ai/ha, taken as preemergence

CCc1cc(C(=O)NC2CC2)nn1Cc1ccnc(C(F)(F)F)c1 [Compound 76]
60: Plant response rating, Field Poppy (field poppy [2]; Postemergence, 16 g ai/ha) | Plant response rating, Mustard, Wild (mustard, wild; 31 g ai/ha) | Chickweed plant response rating (chickweed; Postemergence, 125 g ai/ha)
35: Foxtail, Green plant response rating (foxtail, green; Postemergence, 31 g ai/ha) | Plant response rating, Chickweed (chickweed; Postemergence, 16 g ai/ha) | Plant response rating, Oat, Wild (oat, wild; 62 g ai/ha)
50: Plant response rating, Blackgrass (blackgrass [6]; 31 g ai/ha) | Plant response rating, Galium (galium [7]; 31 g ai/ha) | Chickweed plant response rating (chickweed; Postemergence, 31 g ai/ha) | Oilseed Rape plant response rating (oilseed rape [10]; Postemergence, 125 g ai/ha)
70: Field Poppy plant response rating (field poppy [2]; postemergence, 62 g ai/ha) | Galium plant response rating (galium [8]; Postemergence, 31 g ai/ha) | Chickweed plant response rating (chickweed; Postemergence, 250 g ai/ha) | Oilseed Rape plant response rating (oilseed rape [10]; Postemergence, 250 g ai/ha)
90: Plant response rating, Oilseed Rape (oilseed rape [1]; 125 g ai/ha) | Field Poppy plant response rating (field poppy [2]; Postemergence, 250 g ai/ha) | Plant response rating, Oat, Wild (oat, wild; 125 g ai/ha)
85: Field Poppy plant response rating (field poppy [2]; Postemergence, 125 g ai/ha) | Foxtail, Green plant response rating (foxtail, green; Postemergence, 250 g ai/ha)
75: Galium plant response rating (galium [8]; Postemergence, 125 g ai/ha) | Galium plant response rating (galium [8]; postemergence, 62 g ai/ha)
95: Plant response rating (scale 0 to 100), Field Poppy (field poppy [3]; [11]) | Galium plant response rating (galium [8]; Postemergence, 250 g ai/ha) | Plant response rating, Ryegrass, Italian (ryegrass, Italian; 250 g ai/ha)
0: Blackgrass plant response rating (blackgrass [4]; Postemergence, 31 g ai/ha) | Plant response rating (scale 0 to 100), Bluegrass (bluegrass [5]; [11]) | Plant response rating, Bluegrass (bluegrass [5]; 31 g ai/ha) | Plant response rating (scale 0 to 100), Ryegrass, Italian (ryegrass, Italian; [11]) | Plant response rating, Ryegrass, Italian (ryegrass, Italian; 31 g ai/ha) | Plant response rating, Bromegrass, Downy (bromegrass, downy; Postemergence, 16 g ai/ha) | Bromegrass, Downy plant response rating (bromegrass, downy; Postemergence, 31 g ai/ha) | Plant response rating (scale 0 to 100), Oat, Wild (oat, wild; [11]) | Plant response rating, Wheat, Spring (wheat, spring; Postemergence, 16 g ai/ha) | Plant response rating, Wheat, Winter (wheat, winter; Postemergence, 16 g ai/ha) | Wheat, Winter plant response rating (wheat, winter; Postemergence, 31 g ai/ha)
20: Plant response rating (scale 0 to 100), Blackgrass (blackgrass [6]; [11]) | Bluegrass plant response rating (bluegrass [9]; Postemergence, 125 g ai/ha) | Bluegrass plant response rating (bluegrass [9]; Postemergence, 250 g ai/ha) | Wheat, Winter plant response rating (wheat, winter; Postemergence, 250 g ai/ha) | Oilseed Rape plant response rating (oilseed rape [10]; postemergence, 62 g ai/ha)
55: Plant response rating, Bluegrass (bluegrass [5]; 125 g ai/ha) | Foxtail, Green plant response rating (foxtail, green; Postemergence, 125 g ai/ha) | Plant response rating, Galium (galium [8]; Postemergence, 16 g ai/ha) | Chickweed plant response rating (chickweed; postemergence, 62 g ai/ha)
100: Plant response rating, Oilseed Rape (oilseed rape [1]; 250 g ai/ha) | Plant response rating, Mustard, Wild (mustard, wild; 62 g ai/ha) | Plant response rating, Mustard, Wild (mustard, wild; 125 g ai/ha) | Plant response rating, Mustard, Wild (mustard, wild; 250 g ai/ha) | Plant response rating, Field Poppy (field poppy [3]; 31 g ai/ha) | Plant response rating, Field Poppy (field poppy [3]; 62 g ai/ha) | Plant response rating, Field Poppy (field poppy [3]; 125 g ai/ha) | Plant response rating, Field Poppy (field poppy [3]; 250 g ai/ha) | Plant response rating, Bluegrass (bluegrass [5]; 250 g ai/ha) | Plant response rating, Blackgrass (blackgrass [6]; 62 g ai/ha) | Plant response rating, Blackgrass (blackgrass [6]; 125 g ai/ha) | Plant response rating, Blackgrass (blackgrass [6]; 250 g ai/ha) | Plant response rating, Galium (galium [7]; 62 g ai/ha) | Plant response rating, Galium (galium [7]; 125 g ai/ha) | Plant response rating, Galium (galium [7]; 250 g ai/ha) | Plant response rating, Oat, Wild (oat, wild; 250 g ai/ha)
30: Plant response rating, Oilseed Rape (oilseed rape [1]; 31 g ai/ha)
10: Plant response rating (scale 0 to 100), Oilseed Rape (oilseed rape [1]; [11]) | Windgrass plant response rating (windgrass; Postemergence, 125 g ai/ha) | Windgrass plant response rating (windgrass; postemergence, 62 g ai/ha) | Blackgrass plant response rating (blackgrass [4]; Postemergence, 125 g ai/ha) | Blackgrass plant response rating (blackgrass [4]; Postemergence, 250 g ai/ha) | Bluegrass plant response rating (bluegrass [9]; postemergence, 62 g ai/ha) | Bromegrass, Downy plant response rating (bromegrass, downy; Postemergence, 125 g ai/ha) | Plant response rating, Oat, Wild (oat, wild; 31 g ai/ha) | Wheat, Spring plant response rating (wheat, spring; Postemergence, 250 g ai/ha) | Wheat, Winter plant response rating (wheat, winter; postemergence, 62 g ai/ha) | Plant response rating, Oilseed Rape (oilseed rape [10]; Postemergence, 16 g ai/ha)
5: Plant response rating, Windgrass (windgrass; Postemergence, 16 g ai/ha) | Windgrass plant response rating (windgrass; Postemergence, 31 g ai/ha) | Plant response rating, Blackgrass (blackgrass [4]; Postemergence, 16 g ai/ha) | Blackgrass plant response rating (blackgrass [4]; postemergence, 62 g ai/ha) | Plant response rating, Bluegrass (bluegrass [5]; 62 g ai/ha) | Plant response rating, Foxtail, Green (foxtail, green; Postemergence, 16 g ai/ha) | Plant response rating, Bluegrass (bluegrass [9]; Postemergence, 16 g ai/ha) | Bluegrass plant response rating (bluegrass [9]; Postemergence, 31 g ai/ha) | Bromegrass, Downy plant response rating (bromegrass, downy; postemergence, 62 g ai/ha) | Wheat, Spring plant response rating (wheat, spring; Postemergence, 31 g ai/ha) | Wheat, Spring plant response rating (wheat, spring; Postemergence, 125 g ai/ha) | Wheat, Spring plant response rating (wheat, spring; postemergence, 62 g ai/ha)
65: Plant response rating, Oilseed Rape (oilseed rape [1]; 62 g ai/ha) | Field Poppy plant response rating (field poppy [2]; Postemergence, 31 g ai/ha) | Plant response rating, Ryegrass, Italian (ryegrass, Italian; 125 g ai/ha)
25: Plant response rating (scale 0 to 100), Galium (galium [7]; [11])
15: Windgrass plant response rating (windgrass; Postemergence, 250 g ai/ha) | Foxtail, Green plant response rating (foxtail, green; postemergence, 62 g ai/ha) | Plant response rating, Ryegrass, Italian (ryegrass, Italian; 62 g ai/ha) | Bromegrass, Downy plant response rating (bromegrass, downy; Postemergence, 250 g ai/ha) | Wheat, Winter plant response rating (wheat, winter; Postemergence, 125 g ai/ha) | Oilseed Rape plant response rating (oilseed rape [10]; Postemergence, 31 g ai/ha)
